Reference: patent US20120058997A1, “IMIDAZO[1,2-B]PYRIDAZINE AND PYRAZOLO[1,5-A]PYRIMIDINE DERIVATIVES AND THEIR USE AS PROTEIN KINASE INHIBITORS” (SuperGen, Inc., priority 2006, published 2012)
Read-outs that look alike come from different tables or passages of the source.

Key:
EGFR = EGFR (Homo sapiens, UniProt P00533); test: Radiometric kinase panel selectivity assay; format: biochemical; design: dose or concentration left out as unconfirmed
Nek2 = biological target: T1, Nek2 (Homo sapiens, UniProt P51955); test: Radiometric kinase panel selectivity assay; format: biochemical; design: dose or concentration left out as unconfirmed
T1 sequence (P51955 1-445): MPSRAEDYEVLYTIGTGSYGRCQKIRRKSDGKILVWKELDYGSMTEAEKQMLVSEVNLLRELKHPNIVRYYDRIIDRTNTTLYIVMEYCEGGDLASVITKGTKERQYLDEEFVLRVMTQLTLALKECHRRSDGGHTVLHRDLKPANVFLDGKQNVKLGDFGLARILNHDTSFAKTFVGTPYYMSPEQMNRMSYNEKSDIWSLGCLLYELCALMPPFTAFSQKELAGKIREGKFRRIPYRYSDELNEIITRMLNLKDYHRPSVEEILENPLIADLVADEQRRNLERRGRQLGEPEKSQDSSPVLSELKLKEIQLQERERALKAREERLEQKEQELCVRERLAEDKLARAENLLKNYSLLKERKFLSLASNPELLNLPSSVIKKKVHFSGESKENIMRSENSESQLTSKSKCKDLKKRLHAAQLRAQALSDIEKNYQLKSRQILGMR

c-Kit = c-Kit (Homo sapiens, UniProt P10721); test: Radiometric kinase panel selectivity assay; format: biochemical; design: dose or concentration left out as unconfirmed
Sequence of c-Kit (P10721 26-976): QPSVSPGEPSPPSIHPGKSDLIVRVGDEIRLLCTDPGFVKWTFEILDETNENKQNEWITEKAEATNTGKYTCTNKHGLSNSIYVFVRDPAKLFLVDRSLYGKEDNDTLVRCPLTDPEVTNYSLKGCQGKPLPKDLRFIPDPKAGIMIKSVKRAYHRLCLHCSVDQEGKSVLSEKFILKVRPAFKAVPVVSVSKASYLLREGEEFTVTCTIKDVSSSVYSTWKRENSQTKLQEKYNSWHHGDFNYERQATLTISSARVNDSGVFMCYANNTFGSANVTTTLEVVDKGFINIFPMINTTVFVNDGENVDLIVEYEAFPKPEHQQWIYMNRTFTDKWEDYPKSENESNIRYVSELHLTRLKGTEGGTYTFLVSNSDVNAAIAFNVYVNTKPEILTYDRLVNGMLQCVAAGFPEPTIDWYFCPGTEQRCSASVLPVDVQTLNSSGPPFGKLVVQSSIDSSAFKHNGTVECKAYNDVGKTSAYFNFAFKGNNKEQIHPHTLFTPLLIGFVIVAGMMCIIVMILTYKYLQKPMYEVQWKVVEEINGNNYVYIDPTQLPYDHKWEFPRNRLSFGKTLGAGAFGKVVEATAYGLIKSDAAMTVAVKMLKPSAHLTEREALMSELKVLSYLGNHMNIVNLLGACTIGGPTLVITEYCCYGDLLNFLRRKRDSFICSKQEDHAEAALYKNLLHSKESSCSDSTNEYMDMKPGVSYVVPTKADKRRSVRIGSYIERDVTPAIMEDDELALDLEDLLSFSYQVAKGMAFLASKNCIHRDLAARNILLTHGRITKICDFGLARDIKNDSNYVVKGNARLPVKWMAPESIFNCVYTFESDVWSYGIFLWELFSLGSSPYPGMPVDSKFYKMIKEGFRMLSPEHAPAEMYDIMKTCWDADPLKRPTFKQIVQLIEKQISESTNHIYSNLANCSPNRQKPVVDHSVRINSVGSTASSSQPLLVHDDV

Plk3 = Plk3 (Homo sapiens, UniProt Q9H4B4); test: Radiometric kinase panel selectivity assay; format: biochemical; design: dose or concentration left out as unconfirmed
Sequence of Plk3 (Q9H4B4 whole entry, species assumed): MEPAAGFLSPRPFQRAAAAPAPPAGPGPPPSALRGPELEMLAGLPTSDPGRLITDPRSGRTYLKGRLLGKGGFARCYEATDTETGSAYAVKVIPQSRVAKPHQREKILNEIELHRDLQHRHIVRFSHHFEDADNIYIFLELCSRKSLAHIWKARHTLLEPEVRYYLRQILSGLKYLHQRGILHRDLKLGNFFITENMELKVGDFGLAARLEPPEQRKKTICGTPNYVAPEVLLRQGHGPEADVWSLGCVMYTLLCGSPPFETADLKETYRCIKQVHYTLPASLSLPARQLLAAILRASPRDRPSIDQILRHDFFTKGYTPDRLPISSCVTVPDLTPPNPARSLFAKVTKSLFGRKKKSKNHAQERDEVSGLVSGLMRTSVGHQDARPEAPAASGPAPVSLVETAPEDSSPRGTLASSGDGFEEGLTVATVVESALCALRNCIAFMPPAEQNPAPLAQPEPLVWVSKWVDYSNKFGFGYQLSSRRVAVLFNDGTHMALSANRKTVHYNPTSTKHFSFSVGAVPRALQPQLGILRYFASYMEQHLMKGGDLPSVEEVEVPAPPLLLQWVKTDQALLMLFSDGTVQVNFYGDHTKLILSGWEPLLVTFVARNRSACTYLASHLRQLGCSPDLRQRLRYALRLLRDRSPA

PC-3 Cells = test: Cell growth inhibition, Cell-Titer-Glo, 96 hours; format: cell-based;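 further: luciferase luminescence reflecting cellular ATP, used as a proxy for cell number, with compound-treated cells compared against DMSO vehicle control wells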
[1] = system: phospho-Bad (S112) in MV-4-11 cells; test: phospho-Bad (S112) Western blot in MV-4-11 cells; format: cell-based; details: Homo sapiens, MV4-11, 1 hr treatment, HCl salts, read-out: EC50 on phosphorylation of Bad (S112)
From the text: One illustrative manner to determine the effect of Pim-1 inhibitors on the activity of the Pim-1 kinase is to measure the phosphorylation levels of the protein Bad at serine residue 112 (S112) (phospho-Bad or pBad). Pim-1 is known to cause the phosphorylation of Bad at S112 in order to inactivate the protein and inhibit its association with anti-apoptotic Bcl-2 family members, thereby allowing these Bcl-2 family members to further inhibit apoptotic signals.
Briefly, MV-4-11 (biphenotypic B myelomonocytic leukemia) cells were plated into T25 flasks in serum free media (SFM) at 1.5×10^5 cells/ml and allowed to grow for 24 hrs. After 24 hrs Pim-1 inhibitors at 10, 5, 1, 0.5, 0.1, or 0.01 μM concentrations were added to individual flasks. Treatment with the Pim-1 inhibitors continued for a duration of 1 hr. Cells were harvested after the 1 hr treatment and cell lysates were made from each sample. Equal amounts of total protein from the lysates were loaded onto a 10% Tris-glycine gel (Invitrogen) for SDS-PAGE analysis. […] In order to calculate the EC50 of inhibitors on phosphorylation of Bad (S112), the levels of total Bad protein were determined. […] Densitometry was used to quantitate the levels of each band on the Western blots and used to determine the EC50 of the Pim-1 inhibitors to alter the phospho-Bad protein levels.

Aurora-A = biological target: T2, Aurora-A (Homo sapiens, UniProt O14965); test: Radiometric kinase panel selectivity assay; format: biochemical; design: dose or concentration left out as unconfirmed
T2 sequence (O14965 1-403): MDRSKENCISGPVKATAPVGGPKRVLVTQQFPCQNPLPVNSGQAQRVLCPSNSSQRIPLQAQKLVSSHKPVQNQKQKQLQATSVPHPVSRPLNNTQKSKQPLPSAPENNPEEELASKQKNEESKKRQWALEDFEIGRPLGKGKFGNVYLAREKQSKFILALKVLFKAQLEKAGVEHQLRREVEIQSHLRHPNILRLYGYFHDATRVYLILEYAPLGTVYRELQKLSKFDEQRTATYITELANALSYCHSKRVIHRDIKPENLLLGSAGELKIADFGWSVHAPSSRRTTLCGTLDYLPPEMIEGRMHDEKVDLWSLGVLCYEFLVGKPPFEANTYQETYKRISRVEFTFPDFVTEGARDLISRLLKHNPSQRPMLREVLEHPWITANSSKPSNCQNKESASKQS

K562 Cells = test: Cell growth inhibition, Cell-Titer-Glo, 96 hours; format: cell-based;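 further: luminescent ATP signal as an index of viable cell number, drug-treated versus cells given an equal volume of DMSO vehicle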
Able = Able (Homo sapiens, UniProt P00519); test: Radiometric kinase panel selectivity assay; format: biochemical; design: dose or concentration left out as unconfirmed
Jak2 = Jak2 (Homo sapiens, UniProt O60674); test: Radiometric kinase panel selectivity assay; format: biochemical; design: dose or concentration left out as unconfirmed
Sequence of Jak2 (O60674 whole entry, species assumed): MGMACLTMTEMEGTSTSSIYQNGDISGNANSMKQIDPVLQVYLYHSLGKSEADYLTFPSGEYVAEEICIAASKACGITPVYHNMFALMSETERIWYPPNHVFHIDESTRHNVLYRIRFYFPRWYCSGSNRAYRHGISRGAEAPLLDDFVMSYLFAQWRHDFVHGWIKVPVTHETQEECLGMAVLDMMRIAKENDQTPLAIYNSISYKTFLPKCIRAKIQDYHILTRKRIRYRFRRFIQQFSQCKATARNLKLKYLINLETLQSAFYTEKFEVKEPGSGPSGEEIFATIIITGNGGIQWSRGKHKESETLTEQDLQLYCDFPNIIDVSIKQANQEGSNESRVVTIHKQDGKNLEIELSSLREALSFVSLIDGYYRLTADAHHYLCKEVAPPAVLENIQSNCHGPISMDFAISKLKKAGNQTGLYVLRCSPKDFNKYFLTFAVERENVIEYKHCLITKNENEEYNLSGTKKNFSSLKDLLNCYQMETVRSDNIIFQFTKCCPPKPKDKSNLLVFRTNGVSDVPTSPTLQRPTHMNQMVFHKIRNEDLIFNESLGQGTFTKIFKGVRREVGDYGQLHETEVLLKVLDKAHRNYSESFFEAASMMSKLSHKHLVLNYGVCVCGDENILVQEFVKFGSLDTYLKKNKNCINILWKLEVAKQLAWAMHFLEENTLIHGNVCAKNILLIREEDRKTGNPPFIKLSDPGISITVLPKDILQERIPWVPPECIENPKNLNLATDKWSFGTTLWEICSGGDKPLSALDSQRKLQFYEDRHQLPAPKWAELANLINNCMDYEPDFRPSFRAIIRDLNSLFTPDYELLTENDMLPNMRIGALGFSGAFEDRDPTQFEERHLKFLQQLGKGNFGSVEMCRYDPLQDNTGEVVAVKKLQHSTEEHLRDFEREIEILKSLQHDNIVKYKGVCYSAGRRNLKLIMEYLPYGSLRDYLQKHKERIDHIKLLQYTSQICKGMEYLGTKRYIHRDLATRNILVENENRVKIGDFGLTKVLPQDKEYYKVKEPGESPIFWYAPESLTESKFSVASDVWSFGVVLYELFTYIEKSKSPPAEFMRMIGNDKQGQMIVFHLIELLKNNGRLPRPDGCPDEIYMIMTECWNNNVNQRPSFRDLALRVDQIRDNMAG

CDK1 = CDK1 (Homo sapiens, UniProt P06493); test: Radiometric kinase panel selectivity assay; format: biochemical; design: dose or concentration left out as unconfirmed
Sequence of CDK1 (P06493 whole entry, species assumed): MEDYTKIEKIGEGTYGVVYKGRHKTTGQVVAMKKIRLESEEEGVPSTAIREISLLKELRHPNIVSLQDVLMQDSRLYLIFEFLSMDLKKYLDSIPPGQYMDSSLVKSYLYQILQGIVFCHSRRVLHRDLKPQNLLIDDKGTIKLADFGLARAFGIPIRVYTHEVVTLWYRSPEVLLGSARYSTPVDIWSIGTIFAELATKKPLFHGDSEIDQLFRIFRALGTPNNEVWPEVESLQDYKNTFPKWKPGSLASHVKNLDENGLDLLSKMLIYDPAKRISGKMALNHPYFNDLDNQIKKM
Sequence of CDK1 (P14635 whole entry partner, species assumed): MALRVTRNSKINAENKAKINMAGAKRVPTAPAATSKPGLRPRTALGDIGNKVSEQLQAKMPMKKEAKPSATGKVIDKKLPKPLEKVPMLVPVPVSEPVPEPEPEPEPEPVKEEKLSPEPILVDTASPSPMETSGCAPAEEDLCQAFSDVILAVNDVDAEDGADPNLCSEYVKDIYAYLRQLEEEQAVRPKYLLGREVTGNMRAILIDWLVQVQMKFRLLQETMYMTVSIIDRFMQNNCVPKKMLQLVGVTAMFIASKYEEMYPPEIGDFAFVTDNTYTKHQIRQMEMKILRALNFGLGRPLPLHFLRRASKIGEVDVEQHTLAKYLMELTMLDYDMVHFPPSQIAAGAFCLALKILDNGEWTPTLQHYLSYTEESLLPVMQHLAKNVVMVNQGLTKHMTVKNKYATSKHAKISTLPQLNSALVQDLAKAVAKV

CDK2 = CDK2 (Homo sapiens, UniProt P24941); test: Radiometric kinase panel selectivity assay; format: biochemical; design: dose or concentration left out as unconfirmed
Pim-1 kinase = Pim-1 kinase (Homo sapiens, UniProt P11309); test: Promega Kinase-Glo Pim-1 kinase inhibition assay; format: biochemical;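 further: in vitro Pim-1 reaction run 2 h at 30 °C, then leftover ATP measured by luciferase luminescence, where signal falls as kinase activity rises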
Sequence of Pim-1 kinase (P11309 whole entry): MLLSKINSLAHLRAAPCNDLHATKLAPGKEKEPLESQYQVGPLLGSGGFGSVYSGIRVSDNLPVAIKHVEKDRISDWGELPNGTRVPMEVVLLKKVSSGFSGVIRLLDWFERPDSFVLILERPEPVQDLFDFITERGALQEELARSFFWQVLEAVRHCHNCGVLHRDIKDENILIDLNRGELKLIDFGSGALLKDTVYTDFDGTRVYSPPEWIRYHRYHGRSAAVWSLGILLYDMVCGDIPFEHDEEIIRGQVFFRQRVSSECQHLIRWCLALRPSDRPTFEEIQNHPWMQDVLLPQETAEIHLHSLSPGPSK

[2] = Homo sapiens, Table IX (results), read-out: IC50 (PC-3)
[3] = Table VIII (results), values in nM, read-out: IC50(Kinase)
[4] = Homo sapiens, K562, Table IX (results), read-out: IC50 (K562)
[5] = Table VIII (results), values in uM, read-out: IC50(Kinase)
[6] = Table IX (results), read-out: IC50 (K562)
[7] = Homo sapiens, read-out: IC50 PC-3 Cells (inhibit cell growth to 50% of untreated), Table VI
[8] = IC50 (Kinase inhibitory activity), Table V, Pim-1 kinase, Kinase-Glo
[9] = Homo sapiens, K562, read-out: IC50 K562 Cells (inhibit cell growth to 50% of untreated), Table VI

Sequence of EGFR (P00533 25-1210, species assumed): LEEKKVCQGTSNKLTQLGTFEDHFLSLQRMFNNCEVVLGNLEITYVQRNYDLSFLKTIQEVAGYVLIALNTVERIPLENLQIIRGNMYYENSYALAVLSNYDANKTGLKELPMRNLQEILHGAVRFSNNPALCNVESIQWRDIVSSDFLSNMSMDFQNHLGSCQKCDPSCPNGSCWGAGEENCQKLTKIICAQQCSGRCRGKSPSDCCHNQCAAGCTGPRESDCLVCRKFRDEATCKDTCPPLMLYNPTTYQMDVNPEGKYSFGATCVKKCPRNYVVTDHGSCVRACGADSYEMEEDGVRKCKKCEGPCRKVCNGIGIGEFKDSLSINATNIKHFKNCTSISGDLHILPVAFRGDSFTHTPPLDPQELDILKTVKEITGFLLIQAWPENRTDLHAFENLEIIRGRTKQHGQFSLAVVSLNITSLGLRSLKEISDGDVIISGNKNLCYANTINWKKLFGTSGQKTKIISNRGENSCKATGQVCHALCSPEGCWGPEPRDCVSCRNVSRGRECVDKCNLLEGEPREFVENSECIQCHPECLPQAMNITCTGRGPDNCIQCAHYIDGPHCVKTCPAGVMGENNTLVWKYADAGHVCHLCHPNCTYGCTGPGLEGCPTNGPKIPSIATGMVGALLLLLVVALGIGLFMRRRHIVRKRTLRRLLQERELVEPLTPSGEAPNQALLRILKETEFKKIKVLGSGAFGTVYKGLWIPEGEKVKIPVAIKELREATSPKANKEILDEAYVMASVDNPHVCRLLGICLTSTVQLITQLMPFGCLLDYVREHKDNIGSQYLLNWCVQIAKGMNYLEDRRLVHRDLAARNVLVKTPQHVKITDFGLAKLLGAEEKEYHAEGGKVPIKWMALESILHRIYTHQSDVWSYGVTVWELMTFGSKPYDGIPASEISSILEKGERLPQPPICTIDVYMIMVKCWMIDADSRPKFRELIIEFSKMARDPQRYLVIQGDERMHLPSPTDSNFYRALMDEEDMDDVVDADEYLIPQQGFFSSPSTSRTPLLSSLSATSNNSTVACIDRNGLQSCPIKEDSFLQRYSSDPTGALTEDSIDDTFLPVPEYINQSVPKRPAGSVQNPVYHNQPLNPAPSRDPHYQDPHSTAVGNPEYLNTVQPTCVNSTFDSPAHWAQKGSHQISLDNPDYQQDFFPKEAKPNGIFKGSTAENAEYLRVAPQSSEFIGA

Row | Structure (SMILES) | IC50 (PC-3 Cells; [2]) [µM] | IC50 (Pim-1 kinase; [3]) [nM] | IC50 (K562 Cells; [4]) [µM] | IC50 (Pim-1 kinase; [5]) [nM] | other results
1 | CN1CCC(CNc2ccc3ncc(-c4cccc(OC(F)(F)F)c4)n3n2)CC1 [Compound 7-29] | 4.83 |  |  |  | activity against EGFR (EGFR): no significant activity; activity against Nek2 (Nek2): no significant activity; activity against c-Kit (c-Kit): no significant activity; activity against Plk3 (Plk3): no significant activity; EC50 [1]: 0.0079 µM; activity against Aurora-A (Aurora-A): no significant activity; IC50 (K562 Cells; Homo sapiens, Table IX (results), read-out: IC50 (K562)): 2.29 µM; activity against Able (Able): no significant activity; activity against Jak2 (Jak2): no significant activity; activity against CDK1 (CDK1): no significant activity; activity against CDK2 (CDK2): no significant activity
2 | CCN1CCC(CNc2ccc3ncc(-c4cc(OC(F)(F)F)ccc4O)n3n2)CC1 [Compound 7-47, N-((1-ethylpiperidin-4-yl)methyl)-3-(2-hydroxy-5-(trifluoromethoxy)phenyl)-imidazo[1,2-b]pyridazin-6-amine] | 57.4 | 310 | 11.3 |  | 
3 | CC[C@H](N)COc1ccc2ncc(-c3cccc(OC(F)(F)F)c3)n2n1 [Compound 7-19, (S)-1-(3-(3-(trifluoromethoxy)phenyl)imidazo[1,2-b]pyridazin-6-yloxy)butan-2-amine] |  | 293 | 5.84 |  | EC50 [1]: 0.635 µM
4 | CN(C)c1cccc(-c2cnc3ccc(NCCCCO)nn23)c1 [Compound 7-4, 12-(3-(3-(dimethylamino)phenyl)imidazo[1,2-b]pyridazin-6-ylamino)butan-1-ol] |  |  |  | 1810 | IC50 (PC-3 Cells; Table IX (results), read-out: IC50 (PC-3)): 54.6 µM; IC50 (K562 Cells; [6]): 13.6 µM
5 | Cc1ccc(S(=O)(=O)Nc2ccc(Nc3ccn4ncc(-c5cccc(N(C)C)c5)c4n3)cc2)cc1 [Compound 3-13] |  |  |  |  | IC50 (PC-3 Cells; [7]): 12.8 µM; IC50 (Pim-1 kinase; [8]): 52100 nM; IC50 (K562 Cells; [9]): 29.3 µM
6 | NS(=O)(=O)c1ccc(CNc2ccc3ncc(-c4ccc(CCC(=O)O)cc4)n3n2)cc1 [Compound 1-1] |  |  |  |  | IC50 (PC-3 Cells; [7]): > 300 µM; IC50 (Pim-1 kinase; [8]): 4470 nM; IC50 (K562 Cells; [9]): > 300 µM
7 | Fc1cccc(-c2cnc3ccc(NC4CCCC4)nn23)c1 [Compound 7-15, N-cyclopentyl-3-(3-fluorophenyl)imidazo[1,2-b]pyridazin-6-amine] | 70.2 |  | 20.8 | 5350 | 
8 | Fc1cccc(-c2ccc3ncc(-c4cccc(F)c4)n3n2)c1 [Compound 7-9] | 21.2 |  | 6.76 | 86600 | 
9 | Cc1cc2ncc(-c3cccc(OC(F)(F)F)c3)n2nc1NCC1CCN(C)CC1 [Compound 7-37, 7-Methyl-N-((1-methylpiperidin-4-yl)methyl)-3-(3-(trifluoromethoxy)phenyl)-imidazo[1,2-b]pyridazin-6-amine] | 8.95 | 13 | 3.89 |  | 
10 | Fc1ccc(-c2ccc3ncc(-c4ccc(F)cc4)n3n2)cc1 [Compound 7-7] | 87.2 |  | 271 | 9760 | 
11 | FC(F)(F)Oc1cccc(-c2cnc3ccc(NCCN4CCCC4)nn23)c1 [Compound 7-30, N-(2-(pyrrolidin-1-yl)ethyl)-3-(3-(trifluoromethoxy)phenyl)imidazol[1,2-b]pyridazin-6-amine] | 9.26 | 761 | 9.14 |  | 
12 | CCC(CO)Nc1ccc2ncc(-c3ccc(N(C)C)cc3)n2n1 (centres unmarked) [Compound 7-1] | 29.2 |  | 67.1 | 3990 | IC50 (PC-3 Cells; [7]): 29.2 µM; IC50 (Pim-1 kinase; [8]): 3990 nM; IC50 (K562 Cells; [9]): 67.1 µM
13 | CCC(CO)Nc1ccc2ncc(-c3ccc(NS(C)(=O)=O)cc3)n2n1 (centres unmarked) [Compound 1-3] |  |  |  |  | IC50 (PC-3 Cells; [7]): 39 µM; IC50 (Pim-1 kinase; [8]): 5350 nM; IC50 (K562 Cells; [9]): 80.2 µM
14 | O=C(C1CC1)N1CCC(CNc2ccc3ncc(-c4cccc(OC(F)(F)F)c4)n3n2)CC1 [Compound 7-36, Cyclopropyl(4-((3-(3-(trifluoromethoxy)phenyl)imidazo[1,2-b]pyridazin-6-ylamino)methyl)piperidin-1-yl)methanone] | 33.3 | 73 | 6.91 |  | 
15 | CC[C@@H](CO)Nc1ccc2ncc(-c3cccc(OC(F)(F)F)c3)n2n1 [Compound 7-32, (S)-2-(3-(3-(trifluoromethoxy)phenyl)imidazo[1,2-b]pyridazin-6-ylamino)butan-1-ol] | 29 | 95 | 25.3 | 1550 | IC50 (K562 Cells; [6]): 20 µM
